# Reference: publication PMC8881610 (Nature Communications, 2022)
# Where “and” joins values, the source holds several entries; their conditions need not be identical. Equal values may be shown once. Read-outs that look alike come from different tables or passages of the source.
# How the values were obtained:
# [1] = molecular target: GLP-1R (Homo sapiens, UniProt P43220); experiment: β-arrestin 2 recruitment (BRET); assay type: cell-based; set-up: expressed in transfected cells; host or cells: HEK293T; details: HEK-293T, GLP-1R WT, HEK293T
# Chain of GLP-1R (P43220 24-463): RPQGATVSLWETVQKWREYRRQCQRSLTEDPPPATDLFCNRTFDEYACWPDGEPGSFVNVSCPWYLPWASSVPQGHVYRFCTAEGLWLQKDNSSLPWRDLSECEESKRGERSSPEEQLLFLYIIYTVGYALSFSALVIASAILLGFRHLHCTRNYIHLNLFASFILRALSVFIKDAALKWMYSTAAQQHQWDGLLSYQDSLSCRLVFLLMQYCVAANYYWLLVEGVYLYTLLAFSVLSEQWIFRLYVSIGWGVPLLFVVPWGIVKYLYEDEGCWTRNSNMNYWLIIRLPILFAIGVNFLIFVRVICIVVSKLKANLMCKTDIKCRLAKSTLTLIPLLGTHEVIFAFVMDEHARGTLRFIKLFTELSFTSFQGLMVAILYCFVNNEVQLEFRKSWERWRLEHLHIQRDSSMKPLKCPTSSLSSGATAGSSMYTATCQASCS
# Experimental: HEK293T cells (3.2 × 10^6 cells/10 cm plate) were grown for 24 h before transiently transfection with 15 μg plasmid containing GIPR, GLP-1R or GCGR tagged with Rluc8 and β-arrestin 2 with a Venus-tag at the N terminus at a ratio of 1:9 by Lipofectamine 3000 transfection reagent. After cells were grown for 24 h, transiently transfected cells were then seeded onto poly-D-lysine coated 96-well culture plates (50,000 cells/well) in DMEM with 10% FBS. Cells were grown for 20 h before incubation in assay buffer (HBSS supplemented with 10 mM HEPES, 0.1% BSA or 0.1% casein, pH 7.4) for 30 min at 37 °C. Coelentrazine-h (Yeasen Biotech) was added to a final concentration of 5 μM for 5 min before bioluminescence resonance energy transfer (BRET) readings were made using an EnVision plate reader (PerkinElmer). BRET baseline measurements were collected for 15 cycles prior to ligand addition. After which, BRET was measured for 55 cycles.
# [2] = molecular target: T1, GIPR (Homo sapiens, UniProt P48546); experiment: Whole-cell binding assay, competition with 125I-GIP1-42; set-up: acylated tirzepatide to the full-length or modified; Flag; expressed in transfected cells
# T1 sequence (P48546 22-466): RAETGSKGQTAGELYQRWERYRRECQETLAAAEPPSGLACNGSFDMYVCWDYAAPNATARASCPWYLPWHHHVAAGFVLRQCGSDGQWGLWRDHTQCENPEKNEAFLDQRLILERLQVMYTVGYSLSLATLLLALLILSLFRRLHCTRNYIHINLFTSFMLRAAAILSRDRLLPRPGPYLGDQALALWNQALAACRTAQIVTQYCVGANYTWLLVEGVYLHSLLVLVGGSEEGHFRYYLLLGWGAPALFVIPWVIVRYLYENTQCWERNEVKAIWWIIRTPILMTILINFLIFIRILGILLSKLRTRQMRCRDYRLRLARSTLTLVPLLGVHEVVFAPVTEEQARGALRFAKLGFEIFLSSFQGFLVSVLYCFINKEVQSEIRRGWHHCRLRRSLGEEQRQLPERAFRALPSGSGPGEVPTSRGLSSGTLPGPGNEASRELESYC
# Experimental: (§1) Human embryonic kidney 293 cells containing SV40 large T-antigen (HEK293T) were cultured in DMEM (Gibco) supplemented with 10% (v/v) fetal bovine serum (FBS, Gibco), 1 mM sodium pyruvate (Gibco) and 100 units/mL penicillin and 100 μg/mL streptomycin at 37 °C in 5% CO2. Chinese hamster ovary (CHO-K1) cells were cultured in F-12 (Gibco) containing 10% FBS, 100 units/mL penicillin and 100 μg/mL streptomycin at 37 °C in 5% CO2. For cAMP and receptor expression assays, HEK293T cells were seeded into 6-well cell culture plates at a density of 7 × 10^5 cells per well. After overnight incubation, cells were transfected with GIPR, GLP-1R or GCGR construct using Lipofectamine 2000 or Lipofectamine 3000 transfection reagent (Invitrogen). For whole-cell binding assay, CHO-K1 cells were seeded into 96-well fibronectin-treated cell culture plates at a density of 3 × 10^4 cells per well. After overnight incubation, cells were transfected with GIPR, GLP-1R or GCGR construct using Lipofectamine 2000 transfection reagent (Invitrogen). Following 24 h culturing, the transfected cells were ready for use.
# For GIPR, CHO-K1 cells were cultured in F-12 medium with 10% FBS and seeded at a density of 30,000 cells/well in Isoplate-96 plates (PerkinElmer). The WT or mutant GIPR was transiently transfected using Lipofectamine 2000 transfection reagent as previous described. They were then washed twice using F-12 with 0.1% BSA or 0.1% casein, 33 mM HEPES, and incubated for 2 h at 37 °C. […] Following incubation, cells were washed three times with ice-cold PBS and lysed by addition of 50 μL lysis buffer (PBS supplemented with 20 mM Tris-HCl, 1% Triton X-100, pH 7.4). Fifty µL of scintillation cocktail (OptiPhase SuperMix, PerkinElmer) were added and the plates were subsequently counted for radioactivity (counts per minute, CPM) in a MicroBeta^2 microplate counter (PerkinElmer).
# [3] = molecular target: T1, GIPR; experiment: cAMP accumulation assay (LANCE Ultra cAMP kit), GIPR WT, mutant or modified constructs; assay type: cell-based; set-up: acylated tirzepatide to the full-length or modified; Flag; expressed in transfected cells; host or cells: HEK293T; details: HEK293T; for Emax: HEK-293T
# Experimental: as §1
# A BRIL fusion protein was added at the N-terminal of the ECD with a TEV protease site and 2GSA linker between them. C-terminal 45 amino acids (Q422-C466) of the receptor were truncated. LgBiT was added at the end of helix 8 with a 15-amino acid (15AA) polypeptide linker in between, followed by a TEV protease cleavage site and an OMBP-MBP tag. […] The construct and various mutants of human GIPR were cloned into pcDNA3.1 vector for cAMP accumulation and whole-cell binding assays.
# For GIPR, GLP-1R and GCGR, multi-targeting agonist stimulated cAMP accumulation was measured by a LANCE Ultra cAMP kit (PerkinElmer). After 24 h culture, the transfected cells were seeded into 384-well microtiter plates at a density of 3,000 cells per well in HBSS supplemented with 5 mM HEPES, 0.1% (w/v) BSA or 0.1% (w/v) casein and 0.5 mM 3-isobutyl-1-methylxanthine. The cells were stimulated with different concentrations of peptide agonists for 40 min at RT. Eu-cAMP tracer and ULight^TM-anti-cAMP were then diluted by cAMP detection buffer and added to the plates separately to terminate the reaction. Plates were incubated at RT for 1 h and the fluorescence intensity measured at 620 nm and […] by an EnVision multilabel plate reader (PerkinElmer).
structure (smiles),measurement,setting,value
CCCCCCCCCCCCCCCC(=O)N[C@@H](CCC(=O)NCCCC[C@H](NC(=O)[C@H](CC(=O)O)NC(=O)[C@H](CO)NC(=O)[C@@H](NC(=O)[C@H](Cc1ccccc1)NC(=O)[C@@H](NC(=O)CNC(=O)[C@H](CCC(N)=O)NC(=O)C(C)(C)NC(=O)[C@@H](N)Cc1c[nH]cn1)[C@@H](C)O)[C@@H](C)O)C(=O)N[C@@H](CO)C(=O)N[C@@H](CCCCN)C(=O)N[C@@H](Cc1ccc(O)cc1)C(=O)N[C@@H](CC(C)C)C(=O)N[C@@H](CC(=O)O)C(=O)N[C@@H](CCC(=O)O)C(=O)N[C@@H](CCCNC(=N)N)C(=O)N[C@@H](C)C(=O)N[C@@H](C)C(=O)N[C@@H](CCC(N)=O)C(=O)N[C@@H](CC(=O)O)C(=O)N[C@@H](Cc1ccccc1)C(=O)N[C@H](C(=O)N[C@@H](CCC(N)=O)C(=O)N[C@@H](Cc1c[nH]c2ccccc12)C(=O)N[C@@H](CC(C)C)C(=O)N[C@@H](CC(C)C)C(=O)N[C@@H](CC(=O)O)C(=O)NCC(=O)NCC(=O)N1CCC[C@H]1C(=O)N[C@@H](CO)C(=O)N[C@@H](CO)C(=O)NCC(=O)N[C@@H](C)C(=O)N1CCC[C@H]1C(=O)N1CCC[C@H]1C(=O)N1CCC[C@H]1C(=O)N[C@@H](CO)C(N)=O)C(C)C)C(=O)O [Peptide 20],Emax,[1]; 0.1% BSA,73.5 ± 1.86%
same,Emax,[1]; 0.1% casein,81 ± 1.28%
same,IC50,"[2]; Fig. 7c receptor binding profile, n = 3 in duplicate, SEM, read-out: GIPR (pIC50 ± S.E.M.) (converted)",6.61 nM
same,IC50,"[2]; GIPR WT, 0.1% BSA, CHO-K1, read-out: Binding pIC50 (converted)",13.2 nM
same,binding Span,"[2]; GIPR WT, 0.1% casein, CHO-K1",99.92 ± 6.37
same,IC50,"[2]; GIPR WT, 0.1% casein, CHO-K1, read-out: Binding pIC50 (converted)",3.39 nM
same,binding Span,"[2]; GIPR WT, CHO-K1",97.43 ± 3.89 % WT
same,IC50,"[2]; GIPR WT, CHO-K1, read-out: binding pIC50 (converted)",18.2 nM and 10.7 nM
same,EC50,"[3]; GIPR WT, read-out: cAMP pEC50 (converted)",0.0135 nM
same,EC50,"[3]; GIPR, n = 4, SEM, read-out: cAMP pEC50 ± S.E.M. (converted)",0.00447 nM
same,Emax,"[3]; GIPR WT, 0.1% BSA, read-out: cAMP accumulation Emax",99.9 ± 1.18%
same,Emax,"[3]; GIPR WT, 0.1% casein, read-out: cAMP accumulation Emax",100 ± 1.51%
same,Emax,"[3]; GIPR WT, read-out: cAMP Emax",99.2 ± 1.85%
same,Emax,"[3]; GIPR, n = 4, SEM, read-out: cAMP Emax ± S.E.M.",100 ± 1.48%
